Earlier results in publication PMC9929232, “On-demand male contraception via acute inhibition of soluble adenylyl cyclase” (Nature Communications, 2023).

Conditions: cited from earlier work

## Nc1nc(Cl)cc(-c2nn(C(F)F)cc2Cc2ccccc2OCCN2CCOC[C@@H]2CO)n1 [TDI-11861]
  activity in AMES assays: no significant activity
